Measurements taken from article PMC8704707 (Pharmaceuticals, 2021).
Converted amounts (≈) assume the structure as drawn. “And” between values parts separate entries of the source, which are not always exact repeats. Equal entries are not always repeated. Where two headings read alike, the source gives them in different places.

What was measured:
[1] = tested on: HepG2 cells; conditions: range of tested concentrations up to 500 µM
Procedure: Cytotoxicity of the tested compounds was measured using the standard hepatic cell line HepG2. The used CellTiter 96® assay is based on the reduction of tetrazolium dye (MTS) in living cells to formazan, which is then determined colorimetrically.

[2] = target: AChE from electric eel (EeAChE) (Electrophorus electricus, UniProt O42275); test: biochemical; assay type: biochemical
[3] = target: BuChE from equine serum (EqBuChE) (Equus caballus, UniProt P81908); test: biochemical
[4] = tested on: eight human pathogenic fungi; test: Antifungal microdilution broth method, whole panel; assay type: cell-based; conditions: not reported in Table 2, read-out: MIC, all fungal strains tested
[5] = tested on: methicillin-resistant Staphylococcus aureus ATCC 43300; test: Antibacterial microdilution broth method (EUCAST); assay type: cell-based; conditions: ATCC 43300 / MRSA
[6] = tested on: Pseudomonas aeruginosa ATCC 27853; test: Antibacterial microdilution broth method (EUCAST); assay type: cell-based
[7] = tested on: Escherichia coli ATCC 25922; test: Antibacterial microdilution broth method (EUCAST); assay type: cell-based
[8] = tested on: Acinetobacter baumannii ATCC 19606; test: Antibacterial microdilution broth method (EUCAST); assay type: cell-based
[9] = tested on: Klebsiella pneumoniae ATCC 10031; conditions: for MIC KP 24 h: 24 h incubation; for MIC KP 48 h: 48 h incubation
[10] = tested on: Staphylococcus epidermidis ATCC 12228; test: Antibacterial microdilution broth method (EUCAST); assay type: cell-based
[11] = tested on: Enterococcus faecalis ATCC 29212; test: Antibacterial microdilution broth method (EUCAST); assay type: cell-based
[12] = tested on: Staphylococcus aureus ATCC 29213; test: Antibacterial microdilution broth method (EUCAST); assay type: cell-based
[13] = tested on: four Gram-positive and four Gram-negative bacterial strains; test: Antibacterial microdilution broth method, whole panel; assay type: cell-based; conditions: read-out: MIC, all bacterial strains tested
[14] = tested on: Trichophyton interdigitale ATCC 9533; test: microbe, parasite or virus in culture; assay type: cell-based
[15] = tested on: Candida krusei ATCC 6258; test: microbe, parasite or virus in culture; assay type: cell-based; conditions: Pichia kudriavzevii
[16] = tested on: Candida tropicalis ATCC 750; test: microbe, parasite or virus in culture; assay type: cell-based
[17] = tested on: Candida albicans ATCC 24443; test: microbe, parasite or virus in culture; assay type: cell-based
[18] = tested on: Candida parapsilosis ATCC 22019; test: microbe, parasite or virus in culture; assay type: cell-based; conditions: Lodderomyces parapsilosis
[19] = mean ± SD, n = three independent experiments, BTCh 40 µM, read-out: IC50 BuChE
[20] = ATCC27853, 24 h, read-out: MIC PA 24 h
[21] = ATCC27853, 48 h, read-out: MIC PA 48 h
[22] = ATCC25922, 24 h, read-out: MIC EC 24 h
[23] = ATCC25922, 48 h, read-out: MIC EC 48 h
[24] = ATCC19606, 24 h, read-out: MIC ACI 24 h
[25] = ATCC19606, 48 h, read-out: MIC ACI 48 h
[26] = ATCC12228, 24 h, read-out: MIC SE 24 h
[27] = ATCC12228, 48 h, read-out: MIC SE 48 h
[28] = ATCC29212, 24 h, read-out: MIC EF 24 h
[29] = ATCC29212, 48 h, read-out: MIC EF 48 h
[30] = ATCC29213, 24 h, read-out: MIC SA 24 h
[31] = ATCC29213, 48 h, read-out: MIC SA 48 h
[32] = mean ± SD, n = three independent experiments, ATCh 40 µM, read-out: IC50 AChE

AChE from electric eel (EeAChE), sequence (O42275 24-633): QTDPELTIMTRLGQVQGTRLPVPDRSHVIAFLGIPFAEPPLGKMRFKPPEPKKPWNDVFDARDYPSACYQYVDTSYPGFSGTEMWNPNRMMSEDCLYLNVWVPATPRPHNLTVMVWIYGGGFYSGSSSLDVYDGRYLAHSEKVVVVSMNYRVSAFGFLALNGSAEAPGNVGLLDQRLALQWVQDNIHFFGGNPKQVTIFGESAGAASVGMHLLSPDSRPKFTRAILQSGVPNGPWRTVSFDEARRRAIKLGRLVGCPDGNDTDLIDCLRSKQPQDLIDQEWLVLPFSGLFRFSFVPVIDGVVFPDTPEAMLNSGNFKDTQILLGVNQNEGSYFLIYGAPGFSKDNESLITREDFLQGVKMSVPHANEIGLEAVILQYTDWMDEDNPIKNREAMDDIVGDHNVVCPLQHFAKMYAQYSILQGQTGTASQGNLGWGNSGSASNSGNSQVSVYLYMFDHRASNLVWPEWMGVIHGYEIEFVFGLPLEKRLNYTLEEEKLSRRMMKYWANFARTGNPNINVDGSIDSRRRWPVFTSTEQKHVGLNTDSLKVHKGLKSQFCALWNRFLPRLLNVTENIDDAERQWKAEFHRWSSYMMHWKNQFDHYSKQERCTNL
BuChE from equine serum (EqBuChE), sequence (P81908 whole entry): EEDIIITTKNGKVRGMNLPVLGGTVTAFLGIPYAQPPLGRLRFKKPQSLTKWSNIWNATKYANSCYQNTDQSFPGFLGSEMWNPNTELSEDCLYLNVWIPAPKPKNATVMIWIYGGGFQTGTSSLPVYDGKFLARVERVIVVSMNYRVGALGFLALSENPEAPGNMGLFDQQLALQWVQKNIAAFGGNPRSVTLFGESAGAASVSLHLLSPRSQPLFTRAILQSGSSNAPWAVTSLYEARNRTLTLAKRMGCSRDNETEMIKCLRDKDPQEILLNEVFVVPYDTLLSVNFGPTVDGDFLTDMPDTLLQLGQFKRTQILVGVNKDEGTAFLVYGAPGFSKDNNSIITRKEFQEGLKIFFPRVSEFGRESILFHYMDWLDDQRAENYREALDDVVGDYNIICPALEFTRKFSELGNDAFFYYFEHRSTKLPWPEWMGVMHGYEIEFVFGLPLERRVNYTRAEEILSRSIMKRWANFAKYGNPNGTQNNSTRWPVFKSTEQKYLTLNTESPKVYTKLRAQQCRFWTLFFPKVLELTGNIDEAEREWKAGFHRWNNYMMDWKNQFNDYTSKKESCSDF

N=C(NN)NN [1,3-diaminoguanidine, reference compound]
Cytotoxicity in HepG2 in words [1]: no significant cytotoxicity | IC50 [2]: 41.71 ± 0.23 µM | Selectivity AChE/BuChE [2]: 0.15 | IC50 [3, 19]: 283 ± 8.94 µM

[H]/N=C(\N)NN=Cc1ccccc1 [Compound 1a, (E)-2-Benzylidenehydrazine-1-carboximidamide]
MIC [4]: ≥ 500 µM | MIC ([5]; 24 h, read-out: MIC MRSA 24 h): > 500 µM | MIC ([5]; 48 h, read-out: MIC MRSA 48 h): > 500 µM | MIC [6, 20]: > 500 µM | MIC [6, 21]: > 500 µM | MIC [7, 22]: > 500 µM | MIC [7, 23]: > 500 µM | MIC [8, 24]: > 500 µM | MIC [8, 25]: > 500 µM | IC50 [2]: 36.19 ± 0.1 µM | Selectivity AChE/BuChE [2]: 0.81 | MIC KP 24 h [9]: >500 µM | MIC KP 48 h [9]: >500 µM | MIC [10, 26]: 250 µM (≈ 40.5 µg/mL) | MIC [10, 27]: 250 µM (≈ 40.5 µg/mL) | MIC [11, 28]: > 500 µM | MIC [11, 29]: > 500 µM | MIC [12, 30]: 500 µM (≈ 81.1 µg/mL) | MIC [12, 31]: 500 µM (≈ 81.1 µg/mL) | IC50 ([3]; IC50 BuChE): 44.9 ± 0.54 µM

[H]/N=C(\N)NN=Cc1ccc(Cl)cc1 [Compound 1d, (E)-2-(4-Chlorobenzylidene)hydrazine-1-carboximidamide]
IC50 [2]: 45.2 ± 1.6 µM | Selectivity AChE/BuChE [2]: 3.25 | MIC [13]: ≥ 500 µM | IC50 [3, 19]: < 20 µM and 13.9 µM

[H]/N=C(\N)NN=Cc1cccc(Cl)c1O [Compound 1e, (E)-2-(3-Chloro-2-hydroxybenzylidene)hydrazine-1-carboximidamide]
IC50 [2, 32]: 46.2 ± 2.26 µM | MIC [13]: ≥ 500 µM | IC50 [3, 19]: < 20 µM and 5.57 µM

[H]/N=C(\N)NN=Cc1cc(Cl)cc(Cl)c1O [Compound 1j, (E)-2-(3,5-Dichloro-2-hydroxybenzylidene)hydrazine-1-carboximidamide]
MIC [4]: ≥ 500 µM | MIC ([5]; 24 h, read-out: MIC MRSA 24 h): 250 µM (≈ 61.8 µg/mL) | MIC ([5]; 48 h, read-out: MIC MRSA 48 h): 250 µM (≈ 61.8 µg/mL) | MIC [6, 20]: 250 µM (≈ 61.8 µg/mL) | MIC [6, 21]: 250 µM (≈ 61.8 µg/mL) | MIC [7, 22]: 500 µM (≈ 124 µg/mL) | MIC [7, 23]: 500 µM (≈ 124 µg/mL) | MIC [8, 24]: 500 µM (≈ 124 µg/mL) | MIC [8, 25]: 500 µM (≈ 124 µg/mL) | Selectivity AChE/BuChE [2]: 0.66 | IC50 [2, 32]: 40.8 ± 0.8 µM | MIC KP 24 h [9]: 500 µM (≈ 124 µg/mL) | MIC KP 48 h [9]: 500 µM (≈ 124 µg/mL) | MIC [10, 26]: 250 µM (≈ 61.8 µg/mL) | MIC [10, 27]: 250 µM (≈ 61.8 µg/mL) | MIC [11, 28]: 250 µM (≈ 61.8 µg/mL) | MIC [11, 29]: 250 µM (≈ 61.8 µg/mL) | MIC [12, 30]: 250 µM (≈ 61.8 µg/mL) | MIC [12, 31]: 250 µM (≈ 61.8 µg/mL) | IC50 [3, 19]: 61.7 ± 4.33 µM

[H]/N=C(\N)NN=Cc1ccc([N+](=O)[O-])s1 [Compound 1o, (E)-2-[(5-Nitrothiophen-2-yl)methylene]hydrazine-1-carboximidamide]
MIC ([14]; ATCC9533, 72 h, read-out: MIC TI 72 h): 250 µM (≈ 53.3 µg/mL) | MIC ([14]; ATCC9533, 120 h, read-out: MIC TI 120 h): 250 µM (≈ 53.3 µg/mL) | MIC ([5]; 24 h, read-out: MIC MRSA 24 h): 125 µM (≈ 26.7 µg/mL) | MIC ([5]; 48 h, read-out: MIC MRSA 48 h): 250 µM (≈ 53.3 µg/mL) | MIC ([15]; ATCC6258, 24 h, read-out: MIC CK 24 h): 500 µM (≈ 107 µg/mL) | MIC ([15]; ATCC6258, 48 h, read-out: MIC CK 48 h): 500 µM (≈ 107 µg/mL) | MIC ([16]; ATCC750, 24 h, read-out: MIC CT 24 h): > 500 µM | MIC ([16]; ATCC750, 48 h, read-out: MIC CT 48 h): > 500 µM | MIC [6, 20]: 500 µM (≈ 107 µg/mL) | MIC [6, 21]: 500 µM (≈ 107 µg/mL) | MIC [7, 22]: 62.5 µM (≈ 13.3 µg/mL) | MIC [7, 23]: 62.5 µM (≈ 13.3 µg/mL) | MIC [8, 24]: 125 µM (≈ 26.7 µg/mL) | MIC [8, 25]: 125 µM (≈ 26.7 µg/mL) | MIC ([17]; ATCC24443, 24 h, read-out: MIC CA 24 h): > 500 µM | MIC ([17]; ATCC24443, 48 h, read-out: MIC CA 48 h): > 500 µM | Selectivity AChE/BuChE [2]: 0.11 | IC50 [2, 32]: 31.7 ± 1.34 µM | MIC KP 24 h [9]: 125 µM (≈ 26.7 µg/mL) | MIC KP 48 h [9]: 125 µM (≈ 26.7 µg/mL) | MIC [10, 26]: 62.5 µM (≈ 13.3 µg/mL) | MIC [10, 27]: 62.5 µM (≈ 13.3 µg/mL) | MIC [11, 28]: 250 µM (≈ 53.3 µg/mL) | MIC [11, 29]: 500 µM (≈ 107 µg/mL) | MIC ([18]; ATCC22019, 24 h, read-out: MIC CP 24 h): > 500 µM | MIC ([18]; ATCC22019, 48 h, read-out: MIC CP 48 h): > 500 µM | MIC [12, 30]: 125 µM (≈ 26.7 µg/mL) | MIC [12, 31]: 250 µM (≈ 53.3 µg/mL) | IC50 [3, 19]: 204 to 286 µM and 286 µM

[H]/N=C(\N)NN=Cc1cc(I)c(O)c(I)c1 [Compound 2b, (E)-2-(4-Hydroxy-3,5-diiodobenzylidene)hydrazine-1-carboximidamide]
MIC [4]: ≥ 500 µM | MIC ([5]; 24 h, read-out: MIC MRSA 24 h): 500 µM (≈ 215 µg/mL) | MIC ([5]; 48 h, read-out: MIC MRSA 48 h): 500 µM (≈ 215 µg/mL) | MIC [6, 20]: > 500 µM | MIC [6, 21]: > 500 µM | MIC [7, 22]: 500 µM (≈ 215 µg/mL) | MIC [7, 23]: 500 µM (≈ 215 µg/mL) | MIC [8, 24]: > 500 µM | MIC [8, 25]: > 500 µM | Selectivity AChE/BuChE [2]: 0.87 | IC50 [2, 32]: 40.3 ± 0.85 µM | MIC KP 24 h [9]: 250 µM (≈ 107 µg/mL) | MIC KP 48 h [9]: 250 µM (≈ 107 µg/mL) | MIC [10, 26]: 250 µM (≈ 107 µg/mL) | MIC [10, 27]: 500 µM (≈ 215 µg/mL) | MIC [11, 28]: 500 µM (≈ 215 µg/mL) | MIC [11, 29]: 500 µM (≈ 215 µg/mL) | MIC [12, 30]: 500 µM (≈ 215 µg/mL) | MIC [12, 31]: 500 µM (≈ 215 µg/mL) | IC50 [3, 19]: 46.28 ± 0.29 µM
